Measurements reported in patent EP4574151A1, “INHIBITORS OF G12V-MUTATED RAS PROTEIN TO TREAT CANCER” (Personather Spolka Z Ograniczona Odpowiedzialnoscia, priority 2023, dated 2025).
“Also recorded” adds a separate entry of the source.

Experiments:
Assay type in all cases: cell-based
SW480 cell line = experiment: Western Blot analysis of the RAS-controlled signal transduction pathway in a cancer cell line expressing KRASG12V; conditions: SW480 cell line with RASG12V mutation; 1, 5 and 10 µM; 24 hours; serum-free
Excerpt: Analysis of the impact of the tested compound on the signal transduction pathway controlled by RAS family proteins in cancer cell lines expressing KRASG12V based on the Western Blot method.
The example illustrates the impact of the PER154A and PER160A molecules on the signal transduction pathway in the cancer cell line SW480.
• 1. SW480 cell line at 80-90% confluence was rinsed with PBS without Mg2+ and Ca2+ ions. Remove PBS. • 2. Cells were detached from the vessel using Trypsin-EDTA (0.05%, 1x) for 1-3 minutes at 37°C. • 3. Cells were transferred to a 15 ml tube, centrifuged (200xg, 4 min) and suspended in DMEM High Glucose (HG) medium with 10% bovine serum and antibiotics. • 4. Cells were counted. • 5. 5x10^5 cells were added to each well of a 6-well plate for adherent culture. • 6. The above medium was replenished and left for approximately 24 hours.
• 7. Cells were washed 2-3 times with buffered saline solution without Mg2+ and Ca2+ ions. PBS was carefully removed each time. • 8. 2 ml of DMEM HG medium with antibiotics and without serum was added, left for approximately 24 hours.
• 9. The cells were washed 2-3 times with buffered saline without Mg2+ and Ca2+ ions. PBS was carefully removed each time. • 10. […]

[1] = tested on: NIH/3T3 cell line - immortalized mouse fibroblasts; experiment: Crystal violet cytotoxicity test in normal cells; conditions: summary statement; normal cells NIH/3T3 and PER49
Excerpt: To evaluate the toxicity of the tested compound on normal cells, the NIH/3T3 cell line - immortalized mouse fibroblasts and normal pericytes (PER49) were used.
As a research model, colon cancer and lung cancer cell lines (sensitive lines) were used, including SW620, SW480, and COR-L23, respectively, which are characterized by the KRASG12V gene mutation and lack of other alterations in genes belonging to the RAS protein signaling pathway, as well as a stable line of normal cells (mouse fibroblasts), which serve as a platform for evaluating the impact of tested compounds on non-cancer cells. Below is the result for one of the analyzed cell lines with the mutation. Similar differences in IC50 values compared to normal cells were obtained for the other cell lines mentioned above with the RASG12V mutation.
The effect of molecules on the biology of selected cell lines to assess their cytotoxicity using the IC50 indicator was carried out according to the protocol below: • 1. The cells of the tested lines were seeded in wells of a 96-well plate at specified densities. • 2. After seeding, the cells were subjected to a 24-hour incubation in medium with a 1% and 2.5% addition of serum (sensitive lines) or in medium with a 0.5% addition of serum (normal line). • 3. The cells were exposed to selected molecules at selected concentrations. The control was provided by the culture medium without any added compounds. Concentrations of the tested molecules [uM]: • □ NIH3T3: 500; 250; 125; 62,5; 31,25 • □ SW620: 60; 30; 15; 7,5; 3,75 • 4. After 72 hours of incubation, the culture medium was removed and the cells were washed twice with buffer saline solution (PBS). Then, the cells were incubated for 10 minutes with a 0.1% solution of crystal violet at room temperature (Merck Millipore). • 5. After 10 minutes, the crystal violet solution was removed and the wells of the 96-well plate were washed twice with PBS solution. • 4. 50% ice-cold acetic acid solution was added to each well and incubated again for 10 minutes at room temperature on a shaker at 650 rpm. • 5. Absorbance measurement was performed using a plate reader, at a wavelength of λ = 540 nm

NCI-H1975 = experiment: Toxicity against cancer cells expressing wild type RAS; conditions: summary statement
Protocol: The results of in vitro analyses were presented in the examples. Commercially available cancer cell lines were used for the studies, including SW480, SW620, and COR-L23, showing endogenous expression of KRASG12V, as well as a cell line with exogenously introduced KRASG12V mutation (using methods of genetic engineering) - the DK-MGEGFRvIIIKRASG12V line. Additionally, the cancer cell line NCI- H1975, characterized by the expression of wild type RASWT proteins, was also analyzed.

For `O=C(Nc1ccc2c(c1)OCCO2)c1ccc2c(c1)C1C3CCC(C3)C1C(c1ccccc1)N2` (stereo not drawn) [PER154A], the “impact on downstream signal transduction pathways in relation to RASG12V (AKT, ERK phosphorylation)” value (SW480 cell line) was “Significant impact; also recorded: blocks”, the “toxicity against normal cells” value [1] was “no toxicity” and the “toxicity against cancer cells expressing normal RAS protein” value (NCI-H1975) was “no toxicity”.
In the case of `O=C(Nc1ccc(F)cc1)c1ccc2c(c1)C1C3CCC(C3)C1C(c1ccccc1)N2` (stereo not drawn) [PER160A], the “impact on downstream signal transduction pathways in relation to RASG12V (AKT, ERK phosphorylation)” value (SW480 cell line) is reported as “Significant impact; also recorded: blocks”, the “toxicity against normal cells” value [1] is reported as “no toxicity” and the “toxicity against cancer cells expressing normal RAS protein” value (NCI-H1975) is reported as “no toxicity”.
